From US20230121313A1 (priority 2019, published 2023)

Columns and labels:
[1] = test system: subjects with MDD at imminent risk for suicide; assay: MADRS suicide item, Study […]2001; type: in vivo, human; conditions: 84 mg
From the text: • a. Changes from baseline to Day 2 and Day 25 for the MADRS total score • b. Changes from baseline to Day 1 4-hours postdose, Day 2 and Day 25 for the MADRS Suicide Item • c. Changes from baseline to Day 1 4-hours postdose, Day 2, and Day 25 for the clinical global judgment of suicide risk from the Suicide Ideation and Behavior Assessment Tool (SIBAT) • d. Sustained response (Onset of Clinical Response) defined as at least 50% reduction from baseline in MADRS total score with onset on Day 1 that is maintained through the end of the double-blind phase (Day 25) • e. Changes from baseline to Day 1 4-hours postdose, Day 2, and Day 25 for the Beck Scale for Suicidal Ideation (BSS) • f. Changes from baseline to Day 1 4-hours postdose and Day 25 for the Beck Hopelessness Scale
Results of the change from baseline over time for the suicide item from the MADRS assessment can be found in Attachment 1.

subjects with TRD = conditions: human, in vivo, other: intranasal
Method: The Clinician Administered Dissociative States Scale (CADSS) was measured prior to the start of each dose, at 40 minutes, and 1.5 hours postdose.

glutamate NMDA receptor = conditions: cited from earlier work

Compound: CN[C@]1(c2ccccc2Cl)CCCCC1=O [esketamine, (S)-2-(2-chlorophenyl)-2-(methylamino)cyclohexanone]
- MADRS suicide item (Suicidal Thoughts), Med ([1]; Day 1 (DB): 4 H, LOCF, N 35): 2.0
- MADRS suicide item, change from baseline, Med ([1]; Day 1 (DB): 4 H, LOCF, N 35): −3.0
- MADRS suicide item (Suicidal Thoughts), Med ([1]; Day 1(DB): 4 H, N 35): 2.0
- MADRS suicide item, change from baseline, Med ([1]; Day 1(DB): 4 H, N 35): −3.0
- MADRS suicide item (Suicidal Thoughts), Med ([1]; Day 2(DB) LOCF, N 35): 2.0
- MADRS suicide item, change from baseline, Med ([1]; Day 2(DB) LOCF, N 35): −3.0
- MADRS suicide item (Suicidal Thoughts), Med ([1]; Day 2(DB), N 35): 2.0
- MADRS suicide item, change from baseline, Med ([1]; Day 2(DB), N 35): −3.0
- MADRS suicide item (Suicidal Thoughts), Med ([1]; Day 3(DB) LOCF, N 35): 2.0
- MADRS suicide item, change from baseline, Med ([1]; Day 3(DB) LOCF, N 35): −4.0
- MADRS suicide item (Suicidal Thoughts), Med ([1]; Day 3(DB), N 32): 2.0
- MADRS suicide item, change from baseline, Med ([1]; Day 3(DB), N 32): −4.0
- MADRS suicide item (Suicidal Thoughts), Med ([1]; Day 4(DB) LOCF, N 35): 1.0
- MADRS suicide item, change from baseline, Med ([1]; Day 4(DB) LOCF, N 35): −4.0
- MADRS suicide item (Suicidal Thoughts), Med ([1]; Day 4(DB), N 24): 1.0
- MADRS suicide item, change from baseline, Med ([1]; Day 4(DB), N 24): −4.0
- MADRS suicide item (Suicidal Thoughts), Med ([1]; Day 5(DB) LOCF, N 35): 1.0
- MADRS suicide item, change from baseline, Med ([1]; Day 5(DB) LOCF, N 35): −4.0
- MADRS suicide item (Suicidal Thoughts), Med ([1]; Day 5(DB), N 21): 0.0
- MADRS suicide item, change from baseline, Med ([1]; Day 5(DB), N 21): −4.0
- MADRS suicide item (Suicidal Thoughts), Med ([1]; Day 8(DB) LOCF, N 35): 1.0
- MADRS suicide item, change from baseline, Med ([1]; Day 8(DB) LOCF, N 35): −4.0
- MADRS suicide item (Suicidal Thoughts), Med ([1]; Day 8(DB), N 31): 1.0
- MADRS suicide item, change from baseline, Med ([1]; Day 8(DB), N 31): −4.0
- MADRS suicide item (Suicidal Thoughts), Med ([1]; Day 11(DB) LOCF, N 35): 1.0
- MADRS suicide item, change from baseline, Med ([1]; Day 11(DB) LOCF, N 35): −4.0
- MADRS suicide item (Suicidal Thoughts), Med ([1]; Day 11(DB), N 25): 0.0
- MADRS suicide item, change from baseline, Med ([1]; Day 11(DB), N 25): −4.0
- MADRS suicide item (Suicidal Thoughts), Med ([1]; Day 15(DB) LOCF, N 35): 1.0
- MADRS suicide item, change from baseline, Med ([1]; Day 15(DB) LOCF, N 35): −4.0
- MADRS suicide item (Suicidal Thoughts), Med ([1]; Day 15(DB), N 29): 1.0
- MADRS suicide item, change from baseline, Med ([1]; Day 15(DB), N 29): −4.0
- MADRS suicide item (Suicidal Thoughts), Med ([1]; Day 18(DB) LOCF, N 35): 1.0
- MADRS suicide item, change from baseline, Med ([1]; Day 18(DB) LOCF, N 35): −4.0
- MADRS suicide item (Suicidal Thoughts), Med ([1]; Day 18(DB), N 23): 1.0
- MADRS suicide item, change from baseline, Med ([1]; Day 18(DB), N 23): −4.0
- MADRS suicide item (Suicidal Thoughts), Med ([1]; Day 22(DB) LOCF, N 35): 0.0
- MADRS suicide item, change from baseline, Med ([1]; Day 22(DB) LOCF, N 35): −4.0
- MADRS suicide item (Suicidal Thoughts), Med ([1]; Day 22(DB), N 28): 0.0
- MADRS suicide item, change from baseline, Med ([1]; Day 22(DB), N 28): −4.0
- MADRS suicide item (Suicidal Thoughts), Med ([1]; Day 25(DB): 4 H, N 24): 0.0
- MADRS suicide item, change from baseline, Med ([1]; Day 25(DB): 4 H, N 24): −4.5
- MADRS suicide item (Suicidal Thoughts), Med ([1]; Day 25(DB): Predose LOCF, N 35): 0.0
- MADRS suicide item, change from baseline, Med ([1]; Day 25(DB): Predose LOCF, N 35): −4.0
- MADRS suicide item (Suicidal Thoughts), Med ([1]; Day 25(DB): Predose, N 24): 0.0
- MADRS suicide item, change from baseline, Med ([1]; Day 25(DB): Predose, N 24): −4.5
- MADRS suicide item (Suicidal Thoughts), Med ([1]; Day 32(FU) LOCF, N 26): 0.0
- MADRS suicide item, change from baseline, Med ([1]; Day 32(FU) LOCF, N 26): −4.0
- MADRS suicide item (Suicidal Thoughts), Med ([1]; Day 32(FU), N 26): 0.0
- MADRS suicide item, change from baseline, Med ([1]; Day 32(FU), N 26): −4.0
- MADRS suicide item (Suicidal Thoughts), Med ([1]; Day 39(FU) LOCF, N 27): 0.0
- MADRS suicide item, change from baseline, Med ([1]; Day 39(FU) LOCF, N 27): −5.0
- MADRS suicide item (Suicidal Thoughts), Med ([1]; Day 39(FU), N 26): 0.0
- MADRS suicide item, change from baseline, Med ([1]; Day 39(FU), N 26): −5.0
- MADRS suicide item (Suicidal Thoughts), Med ([1]; Day 46(FU) LOCF, N 27): 0.0
- MADRS suicide item, change from baseline, Med ([1]; Day 46(FU) LOCF, N 27): −4.0
- MADRS suicide item (Suicidal Thoughts), Med ([1]; Day 46(FU), N 25): 0.0
- MADRS suicide item, change from baseline, Med ([1]; Day 46(FU), N 25): −4.0
- MADRS suicide item (Suicidal Thoughts), Med ([1]; Day 53(FU) LOCF, N 27): 0.0
- MADRS suicide item, change from baseline, Med ([1]; Day 53(FU) LOCF, N 27): −4.0
- MADRS suicide item (Suicidal Thoughts), Med ([1]; Day 53(FU), N 24): 0.0
- MADRS suicide item, change from baseline, Med ([1]; Day 53(FU), N 24): −5.0
- MADRS suicide item (Suicidal Thoughts), Med ([1]; Day 67(FU) LOCF, N 27): 0.0
- MADRS suicide item, change from baseline, Med ([1]; Day 67(FU) LOCF, N 27): −4.0
- MADRS suicide item (Suicidal Thoughts), Med ([1]; Day 67(FU), N 26): 0.0
- MADRS suicide item, change from baseline, Med ([1]; Day 67(FU), N 26): −4.0
- MADRS suicide item (Suicidal Thoughts), Med ([1]; Day 81(FU), N 24): 0.0
- MADRS suicide item, change from baseline, Med ([1]; Day 81(FU), N 24): −5.0
- MADRS suicide item (Suicidal Thoughts), Med ([1]; End Point(DB), N 35): 0.0
- MADRS suicide item, change from baseline, Med ([1]; End Point(DB), N 35): −4.0
- MADRS suicide item (Suicidal Thoughts), Med ([1]; End Point(FU), N 27): 0.0
- MADRS suicide item, change from baseline, Med ([1]; End Point(FU), N 27): −5.0
- CADSS dissociative/perceptual change symptoms resolved by (post dose) (subjects with TRD): ≤ 1.5 h
- Affinity for the glutamate NMDA receptor in vitro relative to R-ketamine (glutamate NMDA receptor): 3 to 4 fold
